IC50 data for two compounds are collected here from patent US12049466B2, “Fused bicyclic compounds useful as ubiquitin-specific peptidase 30 inhibitors” (FORMA Therapeutics, Inc., priority 2018, dated 2024).

The structures appear in SMILES notation. Some results are limits rather than exact numbers.

The IC50 is the concentration that inhibits the measured activity by half.

This assay concerns the target T1, human recombinant USP30 (Homo sapiens, UniProt Q70CQ3).
T1 construct: purchased Boston Biochem E-582
T1 sequence (Q70CQ3 1-517): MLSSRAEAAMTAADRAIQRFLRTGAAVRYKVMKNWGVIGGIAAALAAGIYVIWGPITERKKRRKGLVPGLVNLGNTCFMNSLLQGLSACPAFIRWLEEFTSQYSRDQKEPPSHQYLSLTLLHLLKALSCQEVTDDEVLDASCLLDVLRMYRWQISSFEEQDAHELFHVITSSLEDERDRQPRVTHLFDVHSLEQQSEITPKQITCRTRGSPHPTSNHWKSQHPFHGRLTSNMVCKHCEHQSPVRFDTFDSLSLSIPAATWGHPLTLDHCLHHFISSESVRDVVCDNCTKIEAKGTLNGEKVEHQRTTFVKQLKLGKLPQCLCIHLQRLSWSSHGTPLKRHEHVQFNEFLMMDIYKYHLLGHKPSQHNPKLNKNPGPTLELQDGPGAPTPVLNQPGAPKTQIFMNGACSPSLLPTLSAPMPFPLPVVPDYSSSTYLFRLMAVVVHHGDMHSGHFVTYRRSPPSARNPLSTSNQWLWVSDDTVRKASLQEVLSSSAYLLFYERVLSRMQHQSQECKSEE
Description: Ubiquitin-Rhodamine 110 Assay for USP30 Activity (USP30 biochemical assay). To be noted: IC50 ranges; 0.4 nM enzyme, 25 nM Ub-Rh110, 30 min preincubation, test concentration 25 μM to 1.3 nM. As to the method:
Assay Example A: Description of Biochemical Assay: Ubiquitin-Rhodamine 110 Assay for USP30 Activity
The assay was performed in a final volume of 6 μL in assay buffer containing 20 mM Tris-HCl (pH 8.0, (1M Tris-HCl, pH 8.0 solution; Corning 46-031-CM)), 1 mM GSH (L-glutathione reduced, Sigma-Aldrich, G4251-100G), 0.03% BGG ([…], Sigma, G7516-25G), and 0.01% Triton X-100 (Sigma, T9284-10L). Nanoliter quantities of 10-point, 3-fold serial dilution in DMSO were pre-dispensed into 1536 assay plates (Corning, #3724BC) for a final test concentration of 25 μM to 1.3 nM, top to lowest dose, respectively. Concentration and incubation times were optimized for the maximal signal-to-background while maintaining initial velocity conditions at a fixed substrate concentration (<<Km). The final concentration of enzyme (human recombinant USP30, Boston Biochem, cat. #E-582) in the assay was 0.4 nM. Final substrate (Ub-R^h110; Ubiquitin-Rhodamine 110, UbiQ-126) concentration was 25 nM. 3 μL of 2× enzyme was added to assay plates (pre-stamped with compound), preincubated for 30 minutes and then treated with 3 μL of 2× substrate. Plates were read for fluorescence on the Envision (Perkin Elmer) or PheraSTAR (BMG) (excitation at 485 nm and emission at 535 nm) 5 times over the course of 11 minutes and the slope of this kinetic read used to normalize the raw data.
For all assay formats, data were reported as percent inhibition compared with control wells based on the following equation: % inh=1−((FLU−AveLow)/(AveHigh−AveLow)) where FLU=measured Fluorescence, AveLow=average Fluorescence of no enzyme control (n=32), and AveHigh=average Fluorescence of DMSO control (n=32). IC50 values were determined by curve fitting of the standard 4 parameter logistic fitting algorithm included in the Activity Base software package: IDBS XE Designer Model205. Data are fitted using the Levenburg Marquardt algorithm.

With `N#CN1CCN2CCN(c3ncc(-c4ccccc4Oc4ccccc4)s3)C(=O)C2C1` (stereo in doubt) [Compound 1-113R, (R)-9-oxo-8-(5-(2-phenoxyphenyl)thiazol-2-yl)octahydro-2H-pyrazino[1,2-a]pyrazine-2-carbonitrile], the IC50 is less than 0.1 µM.
In the case of `N#CN1CCN2CCN(c3ncc(-c4ccccc4Oc4ccccc4)s3)C(=O)C2C1` (stereo in doubt) [Compound 1-113S, (S)-9-oxo-8-(5-(2-phenoxyphenyl)thiazol-2-yl)octahydro-2H-pyrazino[1,2-a]pyrazine-2-carbonitrile], the IC50 was less than 0.1 µM.
